Source: patent publication US11566002B2, “Substituted tetrahydrocyclopenta[C]pyrroles, substituted dihydropyrrolizines, analogues thereof, and methods using same” (priority 2018, dated 2023)

These compounds were tested on HBV rcDNA (assay: HepDE19 assay with bDNA quantitation of HBV rcDNA). Details: HepDE19 cells, Tet-free medium, 7 day-incubation, rcDNA measured by Quantigene 2.0 bDNA assay, top concentration 25 μM; read-out: DE-19 bDNA EC50.
Assay type: cell-based, hepatitis B virus
Method: HepDE19 Assay with bDNA Quantitation of HBV rcDNA:
HepDE19 cell culture system is a HepG2 (human hepatocarcinoma) derived cell line that supports HBV DNA replication and cccDNA formation in a tetracycline (Tet)-regulated manner and produces HBV rcDNA and a detectable reporter molecule dependent on the production and maintenance of cccDNA (Guo, et al., 2007, J. Virol. 81:12472-12484).
HepDE19 (50,000 cells/well) were plated in 96-well collagen-coated tissue-culture treated microtiter plates in DMEM/F12 medium supplemented with 10% fetal bovine serum, 1% penicillin-streptomycin and 1 μg/mL tetracycline and incubated in a humidified incubator at 37° C. and 5% CO2 overnight. Next day, the cells were switched to fresh medium without tetracycline and incubated for 4 hours at 37° C. and 5% CO2. The cells were treated with fresh Tet-free medium with compounds at concentrations starting at 25 μM and a serial, ½ log, 8-point, titration series in duplicate. The final DMSO concentration in the assay was 0.5%. The plates were incubated for 7 days in a humidified incubator at 37° C. and 5% CO2. Following a 7 day-incubation, the level of rcDNA present in the inhibitor-treated wells was measured using a Quantigene 2.0 bDNA assay kit (Affymetrix, Santa Clara, Calif.) with HBV specific custom probe set and manufacturers instructions. Concurrently, the effect of compounds on cell viability was assessed using replicate plates, plated at a density of 5,000 cells/well and incubated for 4 days, to determine the ATP content as a measure of cell viability using the cell-titer glo reagent (CTG; Promega Corporation, Madison, Wis.) as per manufacturer's instructions. The plates were read using a Victor luminescence plate reader (PerkinElmer Model 1420 Multilabel counter) and the relative luminescence units (RLU) data generated from each well was calculated as % inhibition of the untreated control wells and analyzed using XL-Fit module in Microsoft Excel to determine EC50 and EC90 (bDNA) and CC50 (CTG) values using a 4-parameter curve fitting algorithm.
Representative compounds of the invention were tested for their abilities to inhibit formation of relaxed circular DNA (rcDNA) in a HepDE19 assay, as described elsewhere herein.

Row | SMILES | EC50 [µM]
1 | CNC(=O)NC1CCc2c1c[nH]c2C(=O)Nc1ccc(F)c(Cl)c1 (single isomer, unassigned) [Compound 10, N-(3-Chloro-4-fluorophenyl)-4-(3-methylureido)-2,4,5,6-tetrahydrocyclopenta[c]pyrrole-1-carboxamide] | 16
2 | CNC(=O)NC1CCc2c1c[nH]c2C(=O)Nc1ccc(F)c(Cl)c1 (single isomer, unassigned) [Compound 11, N-(3-Chloro-4-fluorophenyl)-4-(3-methylureido)-2,4,5,6-tetrahydrocyclopenta[c]pyrrole-1-carboxamide] | 2.4
3 | Cn1cc2c(c1C(=O)Nc1ccc(F)c(Cl)c1)CCC2NS(=O)(=O)C1CC1 (single isomer, unassigned) [Compound 13, N-(3-Chloro-4-fluorophenyl)-4-(cyclopropanesulfonamido)-2-methyl-2,4,5,6-tetrahydrocyclopenta [c]pyrrole-1-carboxamide] | 6.8
4 | Cn1cc2c(c1C(=O)Nc1ccc(F)c(Cl)c1)CCC2NS(=O)(=O)C1CC1 (single isomer, unassigned) [Compound 14, N-(3-Chloro-4-fluorophenyl)-4-(cyclopropanesulfonamido)-2-methyl-2,4,5,6-tetrahydrocyclopenta [c]pyrrole-1-carboxamide] | 0.07
5 | CCn1cc2c(c1C(=O)Nc1ccc(F)c(Cl)c1)CCC2NS(=O)(=O)C1CC1 (single isomer, unassigned) [Compound 15, N-(3-Chloro-4-fluorophenyl)-4-(cyclopropanesulfonamido)-2-ethyl-2,4,5,6-tetrahydrocyclopenta[c]pyrrole-1-carboxamide] | ≥ 25
6 | CCn1cc2c(c1C(=O)Nc1ccc(F)c(Cl)c1)CCC2NS(=O)(=O)C1CC1 (single isomer, unassigned) [Compound 16, N-(3-Chloro-4-fluorophenyl)-4-(cyclopropanesulfonamido)-2-ethyl-2,4,5,6-tetrahydrocyclopenta[c]pyrrole-1-carboxamide] | 0.13
7 | CCn1cc2c(c1C(=O)Nc1ccc(F)c(Cl)c1)CCC2NC(=O)OCc1ncn(C)n1 (single isomer, unassigned) [Compound 19, (1-Methyl-1H-1,2,4-triazol-3-yl)methyl (1-((3-chloro-4-fluorophenyl)carbamoyl)-2-ethyl-2,4,5,6-tetrahydrocyclopenta[c]pyrrol-4-yl)carbamate] | 2.1
8 | CCn1cc2c(c1C(=O)Nc1ccc(F)c(Cl)c1)CCC2NC(=O)OCc1ncn(C)n1 (single isomer, unassigned) [Compound 20, (1-Methyl-1H-1,2,4-triazol-3-yl)methyl (1-((3-chloro-4-fluorophenyl)carbamoyl)-2-ethyl-2,4,5,6-tetrahydrocyclopenta[c]pyrrol-4-yl)carbamate] | 0.18
9 | Cn1cc2c(c1C(=O)Nc1ccc(F)c(Cl)c1)CCC2NC(=O)C1CC1 (single isomer, unassigned) [Compound 23, N-(3-Chloro-4-fluorophenyl)-4-(cyclopropanecarboxamido)-2-methyl-2,4,5,6-tetrahydrocyclopenta [c]pyrrole-1-carboxamide] | 0.12
10 | Cn1cc2c(c1C(=O)Nc1ccc(F)c(Cl)c1)CCC2NC(=O)C1CC1 (single isomer, unassigned) [Compound 24, N-(3-Chloro-4-fluorophenyl)-4-(cyclopropanecarboxamido)-2-methyl-2,4,5,6-tetrahydrocyclopenta [c]pyrrole-1-carboxamide] | 1.6
11 | Cn1cnc(COC(=O)NC2CCc3c2cn(C)c3C(=O)Nc2ccc(F)c(Cl)c2)n1 (single isomer, unassigned) [Compound 25, (1-Methyl-1H-1,2,4-triazol-3-yl)methyl (1-((3-chloro-4-fluorophenyl)carbamoyl)-2-methyl-2,4,5,6-tetrahydrocyclopenta[c]pyrrol-4-yl)carbamate] | 3.5
12 | Cn1cnc(COC(=O)NC2CCc3c2cn(C)c3C(=O)Nc2ccc(F)c(Cl)c2)n1 (single isomer, unassigned) [Compound 26, (1-Methyl-1H-1,2,4-triazol-3-yl)methyl (1-((3-chloro-4-fluorophenyl)carbamoyl)-2-methyl-2,4,5,6-tetrahydrocyclopenta[c]pyrrol-4-yl)carbamate] | 0.05

Same assay, conditions: Hepatitis B virus, HepDE19, 168 h, HepDE19 cells, Tet-free medium, 7 day-incubation, rcDNA measured by Quantigene 2.0 bDNA assay, top concentration 25 μM; read-out: DE-19 bDNA EC50

Row | SMILES | EC50 [µM]
13 | CNC(=O)NC1CCc2c1c[nH]c2C(=O)Nc1ccc(F)c(Cl)c1 (racemic) [Compound 8, N-(3-chloro-4-fluorophenyl)-4-(3-methylureido)-2,4,5,6-tetrahydrocyclopenta[c]pyrrole-1-carboxamide] | 18
14 | CC(C)OC(=O)C1(COC(=O)NC2CCc3c2cn(C)c3C(=O)Nc2ccc(F)c(Cl)c2)CC(F)(F)C1 (racemic) [Compound 46, isopropyl 1-((((1-((3-chloro-4-fluorophenyl)carbamoyl)-2-methyl-2,4,5,6-tetrahydrocyclopenta[c]pyrrol-4-yl)carbamoyl)oxy)methyl)-3,3-difluorocyclobutane-1-carboxylate] | 2.3
15 | Cn1cc2c(c1C(=O)Nc1ccc(F)c(Cl)c1)CCC2NC(=O)OCC1(C(=O)O)CC(F)(F)C1 (racemic) [Compound 53, 1-((((1-((3-chloro-4-fluorophenyl)carbamoyl)-2-methyl-2,4,5,6-tetrahydrocyclopenta [c]pyrrol-4-yl)carbamoyl)oxy)methyl)-3,3-difluorocyclobutane-1-carboxylic acid] | 2.7
16 | Cn1cc2c(c1C(=O)Nc1ccc(F)c(Cl)c1)CCC2NC(=O)OCc1nc[nH]n1 (racemic) [Compound 54, (1H-1,2,4-triazol-3-yl)methyl (1-((3-chloro-4-fluorophenyl)carbamoyl)-2-methyl-2,4,5,6-tetrahydrocyclopenta[c]pyrrol-4-yl)carbamate] | 0.06
17 | Cn1cc2c(c1C(=O)Nc1ccc(F)c(Cl)c1)CCC2NC(=O)OCc1nn[nH]n1 (racemic) [Compound 148, (2H-tetrazol-5-yl)methyl (1-((3-chloro-4-fluorophenyl)carbamoyl)-2-methyl-2,4,5,6-tetrahydrocyclopenta[c]pyrrol-4-yl)carbamate] | 1.9
18 | CCn1cc2c(c1C(=O)Nc1ccc(F)c(Cl)c1)CCC2NC(=O)C1CC1 (single isomer, unassigned) [Compound 17, N-(3-Chloro-4-fluorophenyl)-4-(cyclopropanecarboxamido)-2-ethyl-2,4,5,6-tetrahydrocyclopenta[c]pyrrole-1-carboxamide] | 4.9

Same assay, conditions: Hepatitis B virus, HepDE19, 168 h, read-out: DE-19 bDNA EC50 (μM), HepDE19 cells, Tet-free medium, 7 day-incubation, rcDNA measured by Quantigene 2.0 bDNA assay, top concentration 25 μM

Row | SMILES | EC50 [µM]
19 | COC(=O)NC1CCc2c1cn(C)c2C(=O)Nc1ccc(F)c(Cl)c1 (racemic) [Compound 1, methyl 1-(3-chloro-4-fluorophenylcarbamoyl)-2-methyl-2,4,5,6-tetrahydrocyclopenta[c]pyrrol-4-ylcarbamate] | 0.09
20 | CNC(=O)NC1CCc2c1cn(C)c2C(=O)Nc1ccc(F)c(Cl)c1 (racemic) [Compound 3, N-(3-chloro-4-fluorophenyl)-2-methyl-4-(3-methylureido)-2,4,5,6-tetrahydrocyclopenta[c]pyrrole-1-carboxamide] | 0.94

Same assay, conditions: read-out: DE-19 bDNA EC50; HepDE19 cells, Tet-free medium, 7 day-incubation, rcDNA measured by Quantigene 2.0 bDNA assay, top concentration 25 μM

Row | SMILES | EC50 [µM]
21 | COC(=O)NC1CCc2c1cn(C)c2C(=O)Nc1ccc(F)c(Cl)c1 (single isomer, unassigned) [Compound 4, Methyl 1-(3-chloro-4-fluorophenylcarbamoyl)-2-methyl-2,4,5,6-tetrahydrocyclopenta[c] pyrrol-4-ylcarbamate] | 0.05
22 | COC(=O)NC1CCc2c1cn(C)c2C(=O)Nc1ccc(F)c(Cl)c1 (single isomer, unassigned) [Compound 5, Methyl 1-(3-chloro-4-fluorophenylcarbamoyl)-2-methyl-2,4,5,6-tetrahydrocyclopenta[c] pyrrol-4-ylcarbamate] | 0.99
23 | Cn1ccc(COC(=O)NC2CCc3c2cn(C)c3C(=O)Nc2ccc(F)c(Cl)c2)n1 (single isomer, unassigned) [Compound 21, (1-Methyl-1H-pyrazol-3-yl)methyl(1-((3-chloro-4-fluorophenyl)carbamoyl)-2-methyl-2,4,5,6-tetrahydrocyclopenta[c]pyrrol-4-yl)carbamate] | 0.04
24 | Cn1ccc(COC(=O)NC2CCc3c2cn(C)c3C(=O)Nc2ccc(F)c(Cl)c2)n1 (single isomer, unassigned) [Compound 22, (1-Methyl-1H-pyrazol-3-yl)methyl(1-((3-chloro-4-fluorophenyl)carbamoyl)-2-methyl-2,4,5,6-tetrahydrocyclopenta[c]pyrrol-4-yl)carbamate] | 0.78
